Assay results as given in patent publication US12570671B2 (BRISTOL-MYERS SQUIBB COMPANY, priority 2020, dated 2026).
Read-outs that look alike come from different tables or passages of the source.

Columns and labels:
Format in all cases: cell-based
[1] = target: T1, Ikaros (Homo sapiens, UniProt Q13422+Q96SW2); assay: Helios Cellular Degradation Assay (Ikaros readout); parameters: Jurkat cells were plated at 80,000 cells/well; endogenous in cells; host or cells: Jurkat; conditions: Jurkat cells, 72 h incubation, Ikaros-Alexa488 antibody staining, flow cytometry; read-out: Ikaros Jurkat IC50
Procedure: (§1) Jurkat cells were plated at 80,000 cells/well in 40 μL RPMI+10% FBS in a 384 well cell culture plate prior to using acoustic dispensing technology for adding compound of interest. Cell cultures were incubated for 72 h at 37° C. and 5% C02. In order to facilitate analysis, cell cultures were spun down at 200 rpm for 5 min and the supernatant was discarded. After shaking the plate to dislodge the cell pellet, cells were resuspended in 50 μL of Fixation Buffer (eBioScience FoxP3 buffer set 00-5523-00) for 60 min at room temperature. After centrifuging and discarding the supernatant, cells were permeabilized with 50 μL of Permeabilization buffer (eBioScience FoxP3 buffer set 00-5523-00) for 10 min at room temperature. Following permeabilization, cells were spun down and the supernatant was replaced with 20 μL fluorescently labelled antibodies against Helios, Ikaros and Aiolos or corresponding Isotype controls in 1× Permeabilization buffer (Ikaros-Alexa488 [Biolegend, Cat #368408, 1:50], Helios-PE [CST, Cat #29360, 1:50], Aiolos-Alexa647 [Biolegend, Cat #371106Biolegend, 1:25]) and staining reactions were incubated for 1 h at room temperature; protected from light. […] Stained cells were resuspended in 25 μL of flow cytometry staining buffer (PBS+0.2% BSA) and analyzed using an Intellicyt Ique Plus flow cytometer.

[2] = target: T2, Helios (Homo sapiens, UniProt Q96SW2+Q9UKS7); assay: Helios Cellular Degradation Assay (Helios readout); parameters: Jurkat cells were plated at 80,000 cells/well; endogenous in cells; host or cells: Jurkat; conditions: Jurkat cells, 72 h incubation, Helios-PE antibody staining, flow cytometry; read-out: Helios Jurkat IC50
Procedure: as §1

[3] = target: T2, Helios; assay: Helios Cellular Degradation Assay (Helios readout); parameters: endogenous in cells; host or cells: Jurkat; conditions: Jurkat cells, 72 h incubation, Helios-PE antibody staining, flow cytometry; read-out: Helios Jurkat IC50
Procedure, shortened: (§2)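 Jurkat cells (80,000/well, RPMI+10% FBS) were treated with compound for 72 h at 37° C. After fixation and permeabilization they were stained with fluorescent antibodies to Helios, Ikaros and Aiolos. Intracellular protein levels were quantified by flow cytometry.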

[4] = target: T1, Ikaros; assay: Helios Cellular Degradation Assay (Ikaros readout); parameters: endogenous in cells; host or cells: Jurkat; conditions: Jurkat cells, 72 h incubation, Ikaros-Alexa488 antibody staining, flow cytometry; read-out: Ikaros Jurkat IC50
Procedure, shortened: as §2

T2 sequence (Q9UKS7 whole entry): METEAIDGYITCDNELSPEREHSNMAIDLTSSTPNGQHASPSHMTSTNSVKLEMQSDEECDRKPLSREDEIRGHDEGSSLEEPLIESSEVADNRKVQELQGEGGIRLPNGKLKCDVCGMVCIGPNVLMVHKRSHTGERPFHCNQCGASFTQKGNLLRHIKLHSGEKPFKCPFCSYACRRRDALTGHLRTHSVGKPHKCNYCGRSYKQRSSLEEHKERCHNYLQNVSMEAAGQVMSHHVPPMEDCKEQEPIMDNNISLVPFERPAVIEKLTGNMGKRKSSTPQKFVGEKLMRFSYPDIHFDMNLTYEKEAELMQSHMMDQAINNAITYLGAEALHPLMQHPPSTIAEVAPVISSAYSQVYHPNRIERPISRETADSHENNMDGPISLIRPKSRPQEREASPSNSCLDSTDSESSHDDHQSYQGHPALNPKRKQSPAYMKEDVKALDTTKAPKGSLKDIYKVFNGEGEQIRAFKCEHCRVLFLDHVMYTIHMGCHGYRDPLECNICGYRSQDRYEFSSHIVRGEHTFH
T2 sequence (Q96SW2 whole entry): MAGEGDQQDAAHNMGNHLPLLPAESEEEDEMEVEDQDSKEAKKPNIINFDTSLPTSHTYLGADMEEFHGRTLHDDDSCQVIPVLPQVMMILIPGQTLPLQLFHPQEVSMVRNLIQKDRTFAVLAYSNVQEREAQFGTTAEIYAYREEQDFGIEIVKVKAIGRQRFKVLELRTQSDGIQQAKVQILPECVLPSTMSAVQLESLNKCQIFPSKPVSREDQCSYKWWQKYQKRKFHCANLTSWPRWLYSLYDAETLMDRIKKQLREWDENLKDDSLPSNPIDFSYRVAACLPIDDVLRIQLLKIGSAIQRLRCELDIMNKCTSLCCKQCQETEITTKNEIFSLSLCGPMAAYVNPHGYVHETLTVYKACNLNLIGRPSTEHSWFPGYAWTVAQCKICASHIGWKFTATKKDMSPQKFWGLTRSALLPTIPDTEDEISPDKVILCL
T2 sequence (Q16531 whole entry partner): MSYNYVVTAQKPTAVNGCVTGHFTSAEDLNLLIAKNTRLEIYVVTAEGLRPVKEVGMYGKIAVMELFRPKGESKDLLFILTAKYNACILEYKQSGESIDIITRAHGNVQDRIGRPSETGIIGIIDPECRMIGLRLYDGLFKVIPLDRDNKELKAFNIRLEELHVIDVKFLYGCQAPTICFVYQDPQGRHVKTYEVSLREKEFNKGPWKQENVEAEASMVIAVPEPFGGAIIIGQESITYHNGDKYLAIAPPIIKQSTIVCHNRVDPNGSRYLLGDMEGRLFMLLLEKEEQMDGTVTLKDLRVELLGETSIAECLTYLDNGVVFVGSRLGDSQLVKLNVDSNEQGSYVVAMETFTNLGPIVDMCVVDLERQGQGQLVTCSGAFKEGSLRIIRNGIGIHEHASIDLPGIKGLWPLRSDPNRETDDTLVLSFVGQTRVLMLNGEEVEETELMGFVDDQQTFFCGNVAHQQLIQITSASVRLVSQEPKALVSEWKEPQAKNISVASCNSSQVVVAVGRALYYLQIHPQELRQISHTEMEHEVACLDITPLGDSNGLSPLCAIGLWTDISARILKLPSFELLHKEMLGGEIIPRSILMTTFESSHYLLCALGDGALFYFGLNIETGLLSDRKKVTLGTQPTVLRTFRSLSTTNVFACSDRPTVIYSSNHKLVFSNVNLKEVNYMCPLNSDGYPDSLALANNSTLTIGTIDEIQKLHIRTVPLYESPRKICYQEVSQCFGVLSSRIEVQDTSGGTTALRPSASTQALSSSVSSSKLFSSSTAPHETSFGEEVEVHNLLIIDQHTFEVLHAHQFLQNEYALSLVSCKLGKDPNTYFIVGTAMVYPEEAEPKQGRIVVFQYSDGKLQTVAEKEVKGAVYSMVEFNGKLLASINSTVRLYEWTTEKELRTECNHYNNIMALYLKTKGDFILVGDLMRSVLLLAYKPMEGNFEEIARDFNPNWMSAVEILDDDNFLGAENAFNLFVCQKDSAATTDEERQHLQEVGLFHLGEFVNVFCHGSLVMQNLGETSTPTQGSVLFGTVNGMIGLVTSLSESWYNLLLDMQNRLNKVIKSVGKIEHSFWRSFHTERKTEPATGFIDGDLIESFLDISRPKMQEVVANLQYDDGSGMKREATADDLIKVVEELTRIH
T1 sequence (Q13422 whole entry): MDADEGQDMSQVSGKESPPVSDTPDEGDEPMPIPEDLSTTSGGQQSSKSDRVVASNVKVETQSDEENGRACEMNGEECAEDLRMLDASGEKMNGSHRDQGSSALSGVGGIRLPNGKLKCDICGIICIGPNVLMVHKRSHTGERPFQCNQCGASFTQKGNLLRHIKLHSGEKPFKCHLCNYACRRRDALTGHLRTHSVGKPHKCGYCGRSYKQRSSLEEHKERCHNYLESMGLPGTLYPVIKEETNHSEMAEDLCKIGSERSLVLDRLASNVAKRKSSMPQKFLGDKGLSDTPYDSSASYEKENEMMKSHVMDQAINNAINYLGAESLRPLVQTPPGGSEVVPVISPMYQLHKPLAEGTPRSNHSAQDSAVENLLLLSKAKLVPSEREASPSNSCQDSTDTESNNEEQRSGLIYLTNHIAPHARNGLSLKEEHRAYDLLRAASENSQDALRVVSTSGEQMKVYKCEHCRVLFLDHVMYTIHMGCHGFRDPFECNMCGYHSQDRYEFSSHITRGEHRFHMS
T1 sequence (Q96SW2 whole entry): as the sequence (Q96SW2 whole entry) above
T1 sequence (Q16531 whole entry partner): as the sequence (Q16531 whole entry partner) above

Row | DC50 [1] [nM] | DC50 [2] [nM] | DC50 [3] [nM] | DC50 [4] [nM] | Structure (SMILES)
1 | ≥ 10000 | 3980 |  |  | O=C1CCC(N2Cc3cc(-c4cc(COCc5ccccc5)ccn4)ccc3C2=O)C(=O)N1 (stereo not drawn) [Example 154]
2 |  |  | 230 | ≥ 10000 | Nc1cc(CCl)cc(-c2ccc3c(c2)CN(C2CCC(=O)NC2=O)C3=O)n1 (stereo not drawn) [Example 135, 3-{5-[6-amino-4-(chloromethyl)pyridin-2-yl]-1-oxo-2,3-dihydro-1H-isoindol-2-yl}piperidine-2,6-dione]
3 |  |  | 27 | 49 | O=C1CCC(N2Cc3cc(-c4ncc(Br)c5cc[nH]c45)ccc3C2=O)C(=O)N1 (stereo not drawn) [Example 56, 3-(5-{4-bromo-1H-pyrrolo[2,3-c]pyridin-7-yl}-1-oxo-2,3-dihydro-1H-isoindol-2-yl) piperidine-2,6-dione]
4 |  |  | 140 | ≥ 20000 | Cc1c(-c2ccc3c(c2)CN(C2CCC(=O)NC2=O)C3=O)nc(N)c2ccccc12 (stereo not drawn) [Example 131, 3-[5-(1-amino-4-methylisoquinolin-3-yl)-1-oxo-2,3-dihydro-1H-isoindol-2-yl]piperidine-2,6-dione]
5 |  |  | 310 | ≥ 10000 | Cc1cc(O)nc(-c2ccc3c(c2)CN(C2CCC(=O)NC2=O)C3=O)c1 (stereo not drawn) [Example 147, 3-(5-(6-hydroxy-4-methylpyridin-2-yl)-1-oxoisoindolin-2-yl)piperidine-2,6-dione]
6 |  |  | > 20000 | > 20000 | O=C1CCC(N2Cc3cc(-c4nccc(-c5cccnc5)n4)ccc3C2=O)C(=O)N1 (stereo not drawn) [Example 72, 3-(1-oxo-5-(4-(pyridin-3-yl)pyrimidin-2-yl)isoindolin-2-yl)piperidine-2,6-dione]
7 |  |  | 50 | 190 | CCOc1c(-c2ccc3c(c2)CN(C2CCC(=O)NC2=O)C3=O)nc(Cl)c2ccccc12 (stereo not drawn) [Example 86, 3-(5-(1-chloro-4-ethoxyisoquinolin-3-yl)-1-oxoisoindolin-2-yl)piperidine-2,6-dione]
8 |  |  | 180 | ≥ 10000 | O=C1CCC(N2Cc3cc(-c4ccc5c(n4)NCCN5)ccc3C2=O)C(=O)N1 (stereo not drawn) [Example 118, 3-(1-oxo-5-(1,2,3,4-tetrahydropyrido[2,3-b]pyrazin-6-yl)isoindolin-2-yl)piperidine-2,6-dione]
9 |  |  | 70 | ≥ 20000 | O=C1CCC(N2Cc3cc(-c4nccc5[nH]ccc45)ccc3C2=O)C(=O)N1 (stereo not drawn) [Example 160, 3-(1-oxo-5-(1H-pyrrolo[3,2-c]pyridin-4-yl)isoindolin-2-yl)piperidine-2,6-dione]
10 |  |  | 3 | ≥ 20000 | CCOc1c(-c2ccc3c(c2)CN([C@H]2CCC(=O)NC2=O)C3=O)nc(N)c2ccccc12 [Example 84, (3S)-3-[5-(1-amino-4-ethoxyisoquinolin-3-yl)-1-oxo-2,3-dihydro-1H-isoindol-2-yl]piperidine-2,6-dione]
11 |  |  | 1000 | 8100 | CC(=O)N1CCN(c2nc(-c3ccc4c(c3)CN(C3CCC(=O)NC3=O)C4=O)nc3ncccc23)CC1 (stereo not drawn) [Example 55, 3-(5-(4-(4-acetylpiperazin-1-yl)pyrido[2,3-d]pyrimidin-2-yl)-1-oxoisoindolin-2-yl)piperidine-2,6-dione]
12 |  |  | 90 | > 20000 | CC(=O)Nc1nc(-c2ccc3c(c2)CN(C2CCC(=O)NC2=O)C3=O)cc2ccccc12 (stereo not drawn) [Example 48, N-{3-[2-(2,6-Dioxopiperidin-3-yl)-1-oxo-2,3-dihydro-1H-isoindol-5-yl]isoquinolin-1-yl}acetamide]
13 |  |  | > 20000 | > 20000 | Nc1ccc([N+](=O)[O-])c(-c2ccc3c(c2)CN(C2CCC(=O)NC2=O)C3=O)n1 (stereo not drawn) [Example 79, 3-[5-(6-Amino-3-nitropyridin-2-yl)-1-oxo-2,3-dihydro-1H-isoindol-2-yl]piperidine-2,6-dione]
14 |  |  | 10 | ≥ 20000 | COc1cnc(-c2ccc3c(c2)CN(C2CCC(=O)NC2=O)C3=O)c2ccccc12 (stereo not drawn) [Example 103, 3-(5-(4-methoxyisoquinolin-1-yl)-1-oxoisoindolin-2-yl)piperidine-2,6-dione]
15 |  |  | 1500 | ≥ 20000 | CN1CCc2nc(-c3ccc4c(c3)CN(C3CCC(=O)NC3=O)C4=O)ccc2C1=O (stereo not drawn) [Example 92, 3-(5-(6-methyl-5-oxo-5,6,7,8-tetrahydro-1,6-naphthyridin-2-yl)-1-oxoisoindolin-2-yl)piperidine-2,6-dione]
